Three compounds from ChEMBL document CHEMBL5390291, “Glutathione-responsive PROTAC for targeted degradation of ERα in breast cancer cells” (Bioorg Med Chem, 2023) can be followed below.

For series [1], the target named is T1, von Hippel-Lindau disease tumor suppressor/Estrogen receptor (Homo sapiens, UniProt P03372+P40337). Kind of series: PROTAC activity at VHL/ER-alpha in human MCF7 cells assessed as ERalpha degradation at 2 uM incubated for 1 hr by Western blot analysis relative to control. It counts as cell-based. A general note: A western blot detects proteins with antibodies after separation by electrophoresis.
Target sequence in this assay (P03372 whole entry, looked up): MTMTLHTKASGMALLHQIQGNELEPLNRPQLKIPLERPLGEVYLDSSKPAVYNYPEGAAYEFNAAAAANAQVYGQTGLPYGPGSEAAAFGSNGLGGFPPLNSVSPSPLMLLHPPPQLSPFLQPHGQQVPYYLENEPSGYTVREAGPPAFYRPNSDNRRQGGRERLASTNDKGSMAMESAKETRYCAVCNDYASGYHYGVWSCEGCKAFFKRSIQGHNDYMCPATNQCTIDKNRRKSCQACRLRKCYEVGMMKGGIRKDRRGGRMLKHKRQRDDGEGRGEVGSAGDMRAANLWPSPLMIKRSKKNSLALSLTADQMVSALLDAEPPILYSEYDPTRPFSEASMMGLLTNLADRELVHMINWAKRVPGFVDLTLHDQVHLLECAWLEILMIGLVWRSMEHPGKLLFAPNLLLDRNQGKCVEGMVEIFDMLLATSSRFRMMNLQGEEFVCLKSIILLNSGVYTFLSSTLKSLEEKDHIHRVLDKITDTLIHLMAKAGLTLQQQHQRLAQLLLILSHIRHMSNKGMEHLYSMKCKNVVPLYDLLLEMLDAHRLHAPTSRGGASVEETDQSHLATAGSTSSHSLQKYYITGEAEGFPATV
Target sequence in this assay (P40337 whole entry, looked up): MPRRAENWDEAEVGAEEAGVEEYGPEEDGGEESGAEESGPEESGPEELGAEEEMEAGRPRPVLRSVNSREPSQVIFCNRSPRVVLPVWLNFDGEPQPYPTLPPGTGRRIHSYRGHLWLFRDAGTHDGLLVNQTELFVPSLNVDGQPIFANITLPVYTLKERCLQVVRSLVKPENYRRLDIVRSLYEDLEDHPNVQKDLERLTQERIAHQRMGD

For series [2], the target named is T1, von Hippel-Lindau disease tumor suppressor/Estrogen receptor. The series can be described thus: PROTAC activity at VHL/ER-alpha in human MCF7 cells assessed as ERalpha degradation incubated for 12 hrs by Western blot analysis. It counts as cell-based.
For series [3] the target is unchanged. Kind of series: PROTAC activity at VHL/3 Flag-tagged ER-alpha in HBE cells assessed as ERalpha degradation at 0.5 to 10 uM incubated for 6 hr by western blot analysis. It is filed as cell-based. To be noted: dose 0.5-10 µM.
Target sequence in this assay (P03372 whole entry, looked up): as the sequence (P03372 whole entry, looked up) above
Target sequence in this assay (P40337 whole entry, looked up): as the sequence (P40337 whole entry, looked up) above
Series [4] shares this target. The series can be described thus: PROTAC activity at VHL/ER-alpha in human MCF7 cells assessed as ERalpha degradation at 10 uM incubated for 6 hrs by Western blot analysis. It counts as cell-based.
Target sequence in this assay (P03372 whole entry, looked up): as the sequence (P03372 whole entry, looked up) above
Target sequence in this assay (P40337 whole entry, looked up): as the sequence (P40337 whole entry, looked up) above
Series [5] in a line: Stability of compound in PBS buffer pH 7.4 at 0.1 mM incubated upto 48 hrs by HPLC analysis. It is filed as physicochemical. As to conditions: pH 7.4, 48 h, 100 µM.
The target of series [6] is T1, von Hippel-Lindau disease tumor suppressor/Estrogen receptor. Kind of series: PROTAC activity at VHL/3 Flag-tagged ER-alpha in human A549 cells assessed as ERalpha degradation incubated for 12 hrs by Western blot analysis. It is filed as cell-based. As to conditions: dose 0.5-10 µM.
Target sequence in this assay (P03372 whole entry, looked up): as the sequence (P03372 whole entry, looked up) above
Target sequence in this assay (P40337 whole entry, looked up): as the sequence (P40337 whole entry, looked up) above
For series [7] the target is unchanged. Kind of series: PROTAC activity at VHL/ER-alpha in human MCF7 cells assessed as ERalpha degradation level at 10 uM pretreated with VHL-L followed by compound addition and measured after 6 hrs by Western blot analysis. It counts as cell-based.
Target sequence in this assay (P03372 whole entry, looked up): as the sequence (P03372 whole entry, looked up) above
Target sequence in this assay (P40337 whole entry, looked up): as the sequence (P40337 whole entry, looked up) above
Series [8] deals with BT-474. The series can be described thus: Antiproliferative activity against human BT-474 cells assessed as inhibition of cell growth at 10 uM incubated for 3 days by hemocytometer cell counting analysis. To be noted: time 3.0 day. It counts as functional, cell-based.
Series [9] in a line: Stability of compound in mouse plasma at 0.1 mM incubated for 8 hrs by HPLC analysis. It is filed as ADME, cell-free. To be noted: 100 µM.
In series [10] the target is T1, von Hippel-Lindau disease tumor suppressor/Estrogen receptor. Kind of series: PROTAC activity at VHL/ER-alpha in human VHL knockdown MCF7 cells assessed as ERalpha degradation level at 10 uM incubated for 6 hrs by Western blot analysis. It is filed as cell-based.
Target sequence in this assay (P03372 whole entry, looked up): as the sequence (P03372 whole entry, looked up) above
Target sequence in this assay (P40337 whole entry, looked up): as the sequence (P40337 whole entry, looked up) above
The target is the same in series [11]. Kind of series: PROTAC activity at VHL/3 Flag-tagged ER-alpha in HBE cells assessed as ERalpha degradation incubated for 12 hrs by Western blot analysis. It counts as cell-based. As to conditions: dose 0.5-10 µM.
For series [12] the target is unchanged. Kind of series: PROTAC activity at VHL/ER-alpha in human MCF7 cells assessed as ERalpha degradation level at 10 uM pretreated with tamoxifen followed by compound addition and measured after 6 hrs by Western blot analysis. It counts as cell-based.
Series [13] has the same target. The series can be described thus: PROTAC activity at VHL/ER-alpha in human MCF7 cells assessed as ERalpha degradation at 0.5 uM incubated for 6 hrs by Western blot analysis relative to control. It is filed as cell-based.
Series [14] shares this target. The series can be described thus: PROTAC activity at VHL/ER-alpha in human MCF7 cells assessed as ERalpha degradation at 10 uM preincubated for 1 hr with MG132 followed by compound addition and measured after 6 hrs by Western blot analysis. It counts as cell-based.
Series [15] shares this target. The series can be described thus: PROTAC activity at VHL/3 Flag-tagged ER-alpha in human NCI-H1299 cells assessed as ERalpha degradation incubated for 6 hrs by Western blot analysis. It counts as cell-based. As to conditions: dose 0.5-10 µM.
The target is the same in series [16]. Kind of series: PROTAC activity at VHL/ER-alpha in human MCF7 cells assessed as ERalpha degradation level at 10 uM incubated 3 to 6 hrs in the presence of NEM by Western blot analysis. To be noted: time 3-6 hrs. It is filed as cell-based.
In a further series the test system is MCF7. Kind of series: Antiproliferative activity against human MCF7 cells assessed as inhibition of cell growth at 10 uM incubated for 9 days by hemocytometer cell counting analysis. It is filed as functional, cell-based. To be noted: time 9.0 day.
Series [17] has as its target T1, von Hippel-Lindau disease tumor suppressor/Estrogen receptor. The series can be described thus: PROTAC activity at VHL/ER-alpha in human BT-474 cells assessed as ERalpha degradation by Western blot analysis. It counts as cell-based. As to conditions: TDE = time-dependent effect.
For series [18] the target is unchanged. Kind of series: PROTAC activity at VHL/GFP-tagged ER-alpha in human A549 cells assessed as ERalpha degradation by Western blot analysis. It counts as cell-based.
For series [19] the target is unchanged. Kind of series: PROTAC activity at VHL/ER-alpha in human MCF7 cells assessed as ERalpha degradation incubated for 6 hrs by Western blot analysis. It is filed as cell-based. To be noted: dose 0.5-2 µM.
Series [20] has the same target. Kind of series: PROTAC activity at VHL/ER-alpha in human MCF7 cells assessed as ERalpha degradation level at 10 uM by Western blot analysis. To be noted: time 3-6 hrs, TDE = time-dependent effect. It counts as cell-based.
For series [21], the system named is BT-474. The series can be described thus: Antiproliferative activity against human SLC7A11 knockdown BT-474 cells assessed as inhibition of cell growth at 10 uM incubated after 2 days by hemocytometer cell counting analysis. It counts as functional, cell-based. To be noted: time 2.0 day.
The subject of series [22] is BT-474. The series can be described thus: Antiproliferative activity against human GCLC knockdown BT-474 cells assessed as inhibition of cell growth at 10 uM incubated after 2 days by hemocytometer cell counting analysis. It is filed as functional, cell-based. To be noted: time 2.0 day.
Series [23] in a line: GSH reactivity of compound in water/acetonitrile solution assessed as release efficiency at 0.1 mM incubated for 48 hrs by HPLC analysis relative to control. It is filed as physicochemical. As to conditions: buffer, 100 µM.
The target in series [24] is T1, von Hippel-Lindau disease tumor suppressor/Estrogen receptor. The series can be described thus: PROTAC activity at VHL/ER-alpha in human MCF7 cells assessed as ERalpha degradation at 10 uM incubated for 4 hrs by Western blot analysis. It is filed as cell-based.
Series [25] shares this target. Kind of series: PROTAC activity at VHL/3 Flag-tagged ER-alpha in human NCI-H1299 cells assessed as ERalpha degradation incubated for 12 hrs by Western blot analysis. It counts as cell-based. To be noted: dose 0.5-10 µM.

Activity calls are given as the source filed them. The rule behind the calls is not given here.

One may read the DC50 as the midpoint of the concentration-degradation curve. On to `CC/C(=C(\c1ccccc1)c1ccc(OCC(=O)NCCOCCOCC(=O)N[C@H](C(=O)N2C[C@H](O)C[C@H]2C(=O)NCc2ccc(-c3scnc3C)cc2)C(C)(C)C)cc1)c1ccccc1`, for which the Activity in series [1] was 50%; in [2] (dose 0.002-2 µM) it was “Dose-Dependent Effect”. Besides, the 50% degradation concentration (DC50) in [2] came out at 0.056 µM.
In the case of `CC/C(=C(\c1ccccc1)c1ccc(OCC(=O)NCCOCCOCC(=O)N[C@H](C(=O)N2C[C@H](OS(=O)(=O)c3ccccc3[N+](=O)[O-])C[C@H]2C(=O)NCc2ccc(-c3scnc3C)cc2)C(C)(C)C)cc1)c1ccccc1`, the outcome in [3], in [4], in series [18] and in [24] was Active. Moreover, the Stability result in series [5] and in [9] was “Stable” each time. Besides, the Activity result was “Dose-Dependent Effect” in [6]; “Dose-Dependent Effect” in [11]; 50% in series [13]; “Dose-Dependent Effect” in series [15]; “Tde” in [17]; “Dose-Dependent Effect” in series [19]. Besides, the values for the Activity result in [20], in series [23] and in series [25] were “Tde”, 70% and “Dose-Dependent Effect”, respectively. Also, the result in series [7], in series [10], in series [12], in [14] and in series [16] was inactive. The inhibition entry with BT-474 [8] and in the series on MCF7 was “Active” each time. In addition, the inhibition entry in the series with BT-474 [21] and with BT-474 [22] was “inactive” throughout.
In the case of `Cc1ncsc1-c1ccc(CNC(=O)[C@@H]2C[C@@H](O)CN2C(=O)[C@@H](NC(=O)COCCOCCNC(=O)COc2ccc(C(=O)c3c(-c4ccc(O)cc4)sc4cc(O)ccc34)cc2)C(C)(C)C)cc1`, the DC50 in series [2] was 0.188 µM.
